Tests used:
Type in all cases: in vivo, Wistar rats
[1] = test system: damage of gastric mucous membrane induced by aspirin; assay: Damage of gastric mucous membrane measured as stomach thickness in rats with stomach damage induced by aspirin; conditions: oral, once every day for 5 weeks; aspirin 50 mg/kg BW; salt 0.167 g/kg BW; glibenclamide 10 mg/kg BW; ocular micrometer
Description: In order to measure an effect on preventing stomach damage, five-week Wistar rats were purchased from Central Lab. Animal Inc., Seoul, Korea. A breeding room was set to be 20° C. of the temperature, 50 to 60% of relative humidity, and 12 hours of lighting cycle, and water and food were set to be freely taken. The test animals were accommodated for 2 weeks using a general feed prepared on the basis of AlN-93G, and then, the weights of the animals were measured to divide them into each of test groups (n=8). Since then, the test groups were a normal group (Con) injected with distilled water only, a control group (NaCl) injected with pure sodium chloride (NaCl, 0.167 g/kg BW) that was a main ingredient of salt only, and a heat-treated salt-treating group injected with heat-treated purple salt (0.167 g/kg BW), in which each of sample solutions was orally injected along with aspirin (50 mg/kg BW) once every day for 5 weeks. […] A degree of the damage of gastric mucous membrane of the heat-treated purple salt obtained in Example 2 was measured by measuring a stomach thickness. […] Since then, the stomach thicknesses were measured using an ocular micrometer.

[2] = test system: stomach damage induced by aspirin; assay: Effect on preventing stomach damage in rats with stomach damage induced by aspirin (microscopic observation of opened stomach); conditions: oral, once every day for 5 weeks; aspirin 50 mg/kg BW; salt 0.167 g/kg BW; glibenclamide 10 mg/kg BW abdominally 1 hour before
Description: (§1) In order to measure an effect on preventing stomach damage, five-week Wistar rats were purchased from Central Lab. Animal Inc., Seoul, Korea. A breeding room was set to be 20° C. of the temperature, 50 to 60% of relative humidity, and 12 hours of lighting cycle, and water and food were set to be freely taken. The test animals were accommodated for 2 weeks using a general feed prepared on the basis of AlN-93G, and then, the weights of the animals were measured to divide them into each of test groups (n=8). Since then, the test groups were a normal group (Con) injected with distilled water only, a control group (NaCl) injected with pure sodium chloride (NaCl, 0.167 g/kg BW) that was a main ingredient of salt only, and a heat-treated salt-treating group injected with heat-treated purple salt (0.167 g/kg BW), in which each of sample solutions was orally injected along with aspirin (50 mg/kg BW) once every day for 5 weeks. In addition, glibenclamide (10 mg/kg BW) solution inhibiting KATP channel dissolved in 0.01 N NaOH including 4% glucose was abdominally injected 1 hour before orally injecting aspirin (50 mg/kg BW) and heat-treated salt (0.167 g/kg BW), and performed once every day for 5 weeks. The respective treating groups were fasted for 24 hours before sacrificing; sacrificed; and then, the stomach was removed.

[3] = test system: gastric ulcer induced by aspirin; assay: Gastric ulcer index in rats with stomach damage induced by aspirin (method of Dekanski et al.); conditions: oral, once every day for 5 weeks; aspirin 50 mg/kg BW; salt 0.167 g/kg BW; glibenclamide 10 mg/kg BW; n=8
Description: as §1, with “The respective treating groups were fasted for 24 hours before sacrificing; sacrificed; and then, the stomach was removed.” left out
An effect of the heat-treated purple salt obtained in Example 2 on suppressing gastric ulcer was measured.

With `CC(=O)Oc1ccccc1C(=O)O` [aspirin] the “stomach thickness (FIG. 4)” value [1] was “very thin as compared with the normal group”, the “stomach damage (bleeding, inflammation, mucosa) observed with optical microscope (FIG. 2)” value [2] was “severe damage along with gastric hemorrhage” and the “gastric ulcer index (FIG. 3)” value [3] was 37.3±10.4.

Source: patent US9895409B2, “Remedy for gastritis and gastric ulcer” (priority 2011, dated 2018)
